In brackets after ≈: the same amount, converted by molar mass. Like-named read-outs stand apart in the source and are kept apart here.
Assays:
Assay in all cases: MIC in brain heart infusion (BHI) broth
[1] = system: Ent. cloac. 009; assay type: cell-based
From the text: (§1) Generally twelve 2 fold dilutions of the test compound are employed, with initial concentration of the test drug being in the range of 50 to 200 mcg./ml. The susceptibility (MIC) of the test organism is accepted as the lowest concentration of compound capable of producing complete inhibition of growth as judged by the naked eye. A comparison of the activity of 4"-epi-9-deoxo-9a-methyl-9a-aza-9a-homoerythromycin A (IV) with that of an erythromycin A control is shown in replicate in the Table I.

[2] = system: Staph. aur. 052; assay type: cell-based; details: BHI broth, read-out: MIC
From the text: as §1

[3] = system: Strep. faec. 006; assay type: cell-based; details: BHI broth, read-out: MIC
From the text: as §1

[4] = system: Strep. pneumo. 012; assay type: cell-based
From the text: as §1

[5] = system: Serr. mar. 017; assay type: cell-based
From the text: as §1

[6] = system: E. Coli 470; assay type: cell-based; details: Escherichia coli
From the text: as §1

[7] = system: Kleb. pn. 009; assay type: cell-based
From the text: as §1

[8] = system: Neiss. sic. 000; assay type: cell-based
From the text: as §1

[9] = system: Staph. epi 111; assay type: cell-based
From the text: as §1

[10] = system: Prov. strua. 013; assay type: cell-based
From the text: as §1

[11] = system: Ent. aerog. 040; assay type: cell-based
From the text: as §1

[12] = system: Past. mult. 001; assay type: cell-based
From the text: as §1

[13] = system: Kleb. oxy. 024; assay type: cell-based
From the text: as §1

[14] = system: Kleb. pn. 031; assay type: cell-based
From the text: as §1

[15] = system: Staph. aur. 400; assay type: cell-based
From the text: as §1

[16] = system: E. Coli 125; assay type: cell-based; details: Escherichia coli, BHI broth, read-out: MIC
From the text: as §1

[17] = system: Strep. pyog. 203; assay type: cell-based
From the text: as §1

[18] = system: E. Coli 129; assay type: cell-based; details: Escherichia coli, BHI broth, read-out: MIC
From the text: as §1

[19] = system: Staph. aur. 005; assay type: cell-based; details: BHI broth, read-out: MIC
From the text: as §1

[20] = system: E. Coli 266; assay type: cell-based; details: Escherichia coli, BHI broth, read-out: MIC
From the text: as §1

[21] = system: H. influ. 081; assay type: cell-based, Hemophilus influenzae; details: Haemophilus influenzae
From the text: as §1

[22] = system: H. influ. 012; assay type: cell-based, Hemophilus influenzae; details: Haemophilus influenzae
From the text: as §1

[23] = system: H. influ. 051; assay type: cell-based, Hemophilus influenzae; details: Haemophilus influenzae
From the text: as §1

[24] = system: H. influ. 042; assay type: cell-based, Hemophilus influenzae; details: Haemophilus influenzae
From the text: as §1

[25] = system: H. influ. 078; assay type: cell-based, Hemophilus influenzae; details: Haemophilus influenzae
From the text: as §1

[26] = system: H. influ. 073; assay type: cell-based, Hemophilus influenzae; details: Haemophilus influenzae
From the text: as §1

[27] = system: H. influ. 038; assay type: cell-based, Hemophilus influenzae; details: Haemophilus influenzae
From the text: as §1

[28] = system: H. influ. 036; assay type: cell-based, Hemophilus influenzae; details: Haemophilus influenzae
From the text: as §1

**Q.** For CC[C@H]1OC(=O)[C@H](C)[C@@H](O[C@H]2C[C@@](C)(OC)[C@@H](O)[C@H](C)O2)[C@H](C)[C@@H](O[C@@H]2O[C@H](C)C[C@H](N(C)C)[C@H]2O)[C@](C)(O)C[C@@H](C)C(=O)[C@H](C)[C@@H](O)[C@]1(C)O [Erythromycin A], which MIC ([1]; 24 h, Day 1) is on record?
**A.** > 50 µg/mL

**Q.** What about the MIC ([1]; 48 h, Day 2) of the same molecule?
**A.** > 50 µg/mL

**Q.** And the MIC ([2]; 24 h, Day 1)?
**A.** 0.1 µg/mL (≈ 0.136 µM)

**Q.** And the MIC ([2]; 48 h, Day 2)?
**A.** 0.1 µg/mL (≈ 0.136 µM)

**Q.** What about the MIC ([3]; 24 h, Day 1) of the same molecule?
**A.** 0.78 µg/mL (≈ 1.06 µM)

**Q.** What about the MIC ([3]; 48 h, Day 2) of the same molecule?
**A.** 0.78 µg/mL (≈ 1.06 µM)

**Q.** And the MIC ([4]; 24 h, Day 1)?
**A.** 0.025 µg/mL (≈ 0.0341 µM)

**Q.** And the MIC ([4]; 48 h, Day 2)?
**A.** 0.025 µg/mL (≈ 0.0341 µM)

**Q.** And the MIC ([5]; 24 h, Day 1)?
**A.** > 50 µg/mL

**Q.** What about the MIC ([5]; 48 h, Day 2) of the same molecule?
**A.** > 50 µg/mL

**Q.** And the MIC ([6]; 24 h)?
**A.** 3.12 µg/mL (≈ 4.25 µM)

**Q.** What about the MIC ([6]; 48 h) of the same molecule?
**A.** 3.12 µg/mL (≈ 4.25 µM)

**Q.** And the MIC ([7]; 24 h, Day 1)?
**A.** > 50 µg/mL

**Q.** What about the MIC ([7]; 48 h, Day 2) of the same molecule?
**A.** > 50 µg/mL

**Q.** What about the MIC ([8]; 24 h) of the same molecule?
**A.** 1.56 µg/mL (≈ 2.13 µM)

**Q.** What about the MIC ([8]; 48 h) of the same molecule?
**A.** 3.12 µg/mL (≈ 4.25 µM)

**Q.** And the MIC ([9]; 24 h, Day 1)?
**A.** 0.05 µg/mL (≈ 0.0681 µM)

**Q.** What about the MIC ([9]; 48 h, Day 2) of the same molecule?
**A.** 0.05 µg/mL (≈ 0.0681 µM)

**Q.** And the MIC ([10]; 24 h, Day 1)?
**A.** > 50 µg/mL

**Q.** And the MIC ([10]; 48 h, Day 2)?
**A.** > 50 µg/mL

**Q.** What about the MIC ([11]; 24 h, Day 1) of the same molecule?
**A.** > 50 µg/mL

**Q.** What about the MIC ([11]; 48 h, Day 2) of the same molecule?
**A.** > 50 µg/mL

**Q.** What about the MIC ([12]; 24 h) of the same molecule?
**A.** 1.56 µg/mL (≈ 2.13 µM)

**Q.** And the MIC ([12]; 48 h)?
**A.** 1.56 µg/mL (≈ 2.13 µM)

**Q.** What about the MIC ([13]; 24 h, Day 1) of the same molecule?
**A.** > 50 µg/mL

**Q.** And the MIC ([13]; 48 h, Day 2)?
**A.** > 50 µg/mL

**Q.** What about the MIC ([14]; 24 h, Day 1) of the same molecule?
**A.** > 50 µg/mL

**Q.** And the MIC ([14]; 48 h, Day 2)?
**A.** > 50 µg/mL

**Q.** And the MIC ([15]; 24 h)?
**A.** 3.12 µg/mL (≈ 4.25 µM)

**Q.** What about the MIC ([15]; 48 h) of the same molecule?
**A.** 6.25 µg/mL (≈ 8.52 µM)

**Q.** What about the MIC ([16]; 24 h, Day 1) of the same molecule?
**A.** > 50 µg/mL

**Q.** And the MIC ([16]; 48 h, Day 2)?
**A.** > 50 µg/mL

**Q.** And the MIC ([17]; 24 h, Day 1)?
**A.** 0.025 µg/mL (≈ 0.0341 µM)

**Q.** What about the MIC ([17]; 48 h, Day 2) of the same molecule?
**A.** 0.025 µg/mL (≈ 0.0341 µM)

**Q.** And the MIC ([18]; 24 h, Day 1)?
**A.** > 50 µg/mL

**Q.** And the MIC ([18]; 48 h, Day 2)?
**A.** > 50 µg/mL

**Q.** What about the MIC ([19]; 24 h, Day 1) of the same molecule?
**A.** 0.05 µg/mL (≈ 0.0681 µM)

**Q.** And the MIC ([19]; 48 h, Day 2)?
**A.** 0.05 µg/mL (≈ 0.0681 µM)

**Q.** And the MIC ([20]; 24 h, Day 1)?
**A.** > 50 µg/mL

**Q.** What about the MIC ([20]; 48 h, Day 2) of the same molecule?
**A.** > 50 µg/mL

**Q.** What about the MIC ([21]; 24 h) of the same molecule?
**A.** 3.12 µg/mL (≈ 4.25 µM)

**Q.** And the MIC ([21]; 48 h)?
**A.** 3.12 µg/mL (≈ 4.25 µM)

**Q.** And the MIC ([22]; 24 h, Day 1)?
**A.** 3.12 µg/mL (≈ 4.25 µM)

**Q.** What about the MIC ([22]; 48 h, Day 2) of the same molecule?
**A.** 1.56 µg/mL (≈ 2.13 µM)

**Q.** What about the MIC ([23]; 24 h) of the same molecule?
**A.** 3.12 µg/mL (≈ 4.25 µM)

**Q.** And the MIC ([23]; 48 h)?
**A.** 3.12 µg/mL (≈ 4.25 µM)

**Q.** What about the MIC ([24]; 24 h, Day 1) of the same molecule?
**A.** 1.56 µg/mL (≈ 2.13 µM)

**Q.** What about the MIC ([24]; 48 h, Day 2) of the same molecule?
**A.** 1.56 µg/mL (≈ 2.13 µM)

**Q.** And the MIC ([25]; 24 h, Day 1)?
**A.** 1.56 µg/mL (≈ 2.13 µM)

**Q.** And the MIC ([25]; 48 h, Day 2)?
**A.** 1.56 µg/mL (≈ 2.13 µM)

**Q.** What about the MIC ([26]; 24 h) of the same molecule?
**A.** 3.12 µg/mL (≈ 4.25 µM)

**Q.** And the MIC ([26]; 48 h)?
**A.** 3.12 µg/mL (≈ 4.25 µM)

**Q.** What about the MIC ([27]; 24 h) of the same molecule?
**A.** 6.25 µg/mL (≈ 8.52 µM)

**Q.** What about the MIC ([27]; 48 h) of the same molecule?
**A.** 3.12 µg/mL (≈ 4.25 µM)

**Q.** And the MIC ([28]; 24 h, Day 1)?
**A.** 6.25 µg/mL (≈ 8.52 µM)

**Q.** And the MIC ([28]; 48 h, Day 2)?
**A.** 3.12 µg/mL (≈ 4.25 µM)

— patent publication US4526889A, “Epimeric azahomoerythromycin A derivative, intermediates and method of use” (Pfizer Inc., priority 1984, dated 1985)
